Structures can show the parent of a compound that is named as a salt.

Assay [1] deals with muscarine M3 receptor. Nature of the assay: Effect of suppressing methacholine-induced airway contraction (in vivo, intratracheal administration). Also noted: species or system guinea pig. The note with it: guinea pigs, intratracheal administration 60 minutes before 30 μg/kg i.v. methacholine, AUC of increase in airway pressure over 10 minutes. In short, it runs like this:
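Anesthetized, gallamine-paralysed, ventilated male Hartley guinea pigs (350–550 g); compound in 5% glucose given intratracheally 60 min before 30 μg/kg i.v. methacholine. Airway pressure AUC over 10 min scored; ID50 from inhibition versus 5% glucose vehicle group.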

In assay [2] the target is T1, neurokinin NK2 receptor (Cavia porcellus, UniProt Q64077).
T1 construct: Using healthy guinea pigs (body weight, 350 to 550 g; Hartley male guinea pigs); from tissue; host or cells: live anaesthetised Hartley male guinea pigs (airway, in vivo)
T1 sequence (Q64077 1-402): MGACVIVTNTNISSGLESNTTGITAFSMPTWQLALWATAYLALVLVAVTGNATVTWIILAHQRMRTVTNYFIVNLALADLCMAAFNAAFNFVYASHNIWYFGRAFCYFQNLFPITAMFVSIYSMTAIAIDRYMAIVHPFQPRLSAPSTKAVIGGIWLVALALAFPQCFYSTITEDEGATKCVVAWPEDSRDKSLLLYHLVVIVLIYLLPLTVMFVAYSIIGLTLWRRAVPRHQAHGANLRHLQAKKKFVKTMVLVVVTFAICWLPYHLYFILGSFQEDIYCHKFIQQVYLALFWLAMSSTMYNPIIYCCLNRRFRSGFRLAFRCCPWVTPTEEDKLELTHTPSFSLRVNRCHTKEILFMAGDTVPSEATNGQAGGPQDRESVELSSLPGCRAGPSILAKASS
Nature of the assay: Effect of suppressing neurokinin A-induced airway contraction (in vivo, intratracheal administration). The note with it: guinea pig; guinea pigs, intratracheal administration 60 minutes before 4 μg/kg i.v. NKA; AUC of increase in airway pressure over 10 minutes; read-out: ID50 (the source's name). More on the design: species or system guinea pig. The essentials: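 Anesthetized, gallamine-paralysed, ventilated male Hartley guinea pigs received compound in 5% glucose intratracheally 60 minutes before 4 μg/kg NKA i.v. AUC of airway pressure increase over 10 minutes gave inhibition versus vehicle controls, expressed as ID50.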

`CN(CCN1CCC(OC(=O)Nc2ccccc2-c2ccccc2)CC1)C(=O)CCCCCNc1ccc(C(=O)N2CCCN(C(=O)CO[C@H]3Cc4ccccc4C34CCN(CC[C@@]3(c5ccc(F)cc5)CN(C(=O)c5cc(C(F)(F)F)cc(C(F)(F)F)c5)CO3)CC4)CC2)cc1` [Example 110, 1-{2-[{6-[(4-{[4-({[(2S)-1′-{2-[(5R)-3-[3,5-Bis(trifluoromethyl)benzoyl]-5-(4-fluorophenyl)-1,3-oxazolidin-5-yl)ethyl}-2,3-dihydrospiro[indene-1,4′-piperidin]-2-yl]oxy}acetyl)-1,4-diazepan-1-yl]carbonyl}phenyl)amino]hexanoyl}(methyl)amino]ethyl}piperidin-4-yl biphenyl-2-ylcarbamate trihydrochloride] showed an ID50 in assay [1] of 0.0318 mg/kg. In assay [2], the ED50 is 0.0135 mg/kg.

On to `CN(CCN1CCC(OC(=O)Nc2ccccc2-c2ccccc2)CC1)C(=O)CCCCCNc1ccc(C(=O)N(C)CCN(C)C(=O)CO[C@H]2Cc3ccccc3C23CCN(CC[C@@]2(c4ccc(F)cc4)CN(C(=O)c4cc(C(F)(F)F)cc(C(F)(F)F)c4)CO2)CC3)cc1` [Example 16, 1-(2-{[6-({4-[{2-[({[(2S)-1′-{2-[(5R)-3-[3,5-Bis(trifluoromethyl)benzoyl]-5-(4-fluorophenyl)-1,3-oxazolidin-5-yl]ethyl}-2,3-dihydrospiro[indene-1,4′-piperidin]-2-yl]oxy}acetyl)(methyl)amino]ethyl}(methyl)carbamoyl]phenyl}amino)hexanoyl](methyl)amino}ethyl)piperidin-4-yl biphenyl-2-ylcarbamate trihydrochloride], for which, in assay [1] (trihydrochloride), the ID50 was 0.0191 mg/kg. Moreover, the ED50 in assay [2] was determined as 0.0286 mg/kg.

For `CN(CCN1CCC(OC(=O)Nc2ccccc2-c2ccccc2)CC1)C(=O)CCCCN(C)c1ccc(C(=O)N(C)CCCN(C)C(=O)CO[C@H]2Cc3ccccc3C23CCN(CC[C@@]2(c4ccc(F)cc4)CN(C(=O)c4cc(C(F)(F)F)cc(C(F)(F)F)c4)CO2)CC3)cc1` [Example 38, 1-{2-[{5-[{4-[{3-[({[(2S)-1′-{2-[(5R)-3-[3,5-Bis(trifluoromethyl)benzoyl]-5-(4-fluorophenyl)-1,3-oxazolidin-5-yl]ethyl}-2,3-dihydrospiro[indene-1,4′-piperidin]-2-yl]oxy}acetyl)(methy)amino]propyl}(methyl)carbamoyl]phenyl}(methyl)amino]pentanoyl}(methyl)amino]ethyl}piperidin-4-yl biphenyl-2-ylcarbamate trihydrochloride], the ID50 in assay [1] came out at 0.0257 mg/kg. The ED50 in assay [2] was 0.0253 mg/kg.

Compound `CN(CCN1CCC(OC(=O)Nc2ccccc2-c2ccccc2)CC1)C(=O)CCCCCNc1ccc(C(=O)N(CCCN(C)C(=O)CO[C@H]2Cc3ccccc3C23CCN(CC[C@@]2(c4ccc(F)cc4)CN(C(=O)c4cc(C(F)(F)F)cc(C(F)(F)F)c4)CO2)CC3)C2CC2)cc1` [Example 25, 1-(2-{[6-({4-[{3-[({[(2S)-1′-{2-[(5R)-3-[3,5-Bis(trifluoromethyl)benzoyl]-5-(4-fluorophenyl)-1,3-oxazolidin-5-yl]ethyl}-2,3-dihydrospiro[indene-1,4′-piperidin]-2-yl]oxy}acetyl)(methyl)amino]propyl}(cyclopropyl)carbamoyl]phenyl}amino)hexanoyl](methyl)amino}ethyl)piperidin-4-yl biphenyl-2-ylcarbamate trihydrochloride] yielded an ID50 in assay [1] of 0.0459 mg/kg. Also, the ED50 in assay [2] stood at 0.0727 mg/kg.
